# Target: T1, PLA2 (Homo sapiens, UniProt P14555)
# T1 construct: The enzyme is isolated from human platelets; from tissue; host or cells: human platelets
# T1 sequence (P14555 21-144): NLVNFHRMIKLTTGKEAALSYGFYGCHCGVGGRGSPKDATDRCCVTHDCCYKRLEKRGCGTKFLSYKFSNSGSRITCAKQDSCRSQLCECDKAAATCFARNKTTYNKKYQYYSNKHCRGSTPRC
# Test: PLA2 Inhibition Assay (14C-oleate labeled E. coli membrane substrate)
# Assay type: biochemical
# Conditions: 100 μM (sic, Table 6); PLA2 from human platelets; pH 7, 37° C.
# Description: The method used is similar to that reported by Franson, et al. [Jesse, R. L. and Franson R. C., Biochim. Biophys. Acta 575: 467-470 (1979); Franson, R. C., Patriarca, P., and Elsback, P., J. Lipid Res. 15: 380-388 (1974)]. The enzyme is isolated from human platelets. The substrate used consists of ^14 C-oleate labeled Escherichia coli membranes. E. coli cells are grown in the presence of ^14 C-oleic acid and then autoclaved to prepare the membranes.
# Various concentrations of test compounds are preincubated with PLA2 (3.6 mg/mL in a buffer consisting of 25 mM HEPES (pH 7)), 150 mM NaCl, 5.0 mM CaCl2, and 10% DMSO (v/v, test compound solvent) at 37° C. for 7 minutes. The E. coli substrate is then added (0.1 mM phospholipid, 0,005 mCi ^14 C) and the reaction is then incubated at 37° C. for 30 minutes. The reaction is then terminated by the addition of 1.9 mL tetrahydrofuran (THF), and the entire solution is applied to a solid-phase extraction column (aminopropyl resin, Analytichem). The column is rinsed with an additional 1 mL of THF. The free fatty acid product of the reaction is then eluted from the column with 1 mL 2% acetic acid in THF and collected in a scintillation vial. The amount of free fatty acid product is determined by liquid scintillation counting. The amount of inhibition produced by the test compound is calculated by comparing the counts obtained in the presence of the compound to those obtained in its absence (solvent only). Background counts were determined by performing incubations in the absence of enzyme.
# Percent inhibition is determined by the equation: [formula]
row,SMILES,% Inhibition of PLA2 at 100 .infin.M
1,"CC1(C)CCC(C)(C)c2cc(COc3ccccc3-c3cccc(C(=O)O)c3)ccc21 [Structure 52a, 2-[5,6,7,8-tetrahydro-5,5,8,8-tetramethyl-2-naphthalenyl]methoxy-[1,1'-biphenyl]-3'-carboxylic acid]",83%
2,"CC1(C)CCC(C)(C)c2cc(COc3ccccc3-c3ccc(C(=O)O)cc3)ccc21 [Structure 52b, 2-[5,6,7,8-tetrahydro-5,5,8,8-tetramethyl-2-naphthalenyl]methoxy-[1,1'-biphenyl]-4'-carboxylic acid]",66%
3,"CC1(C)CCC(C)(C)c2cc(COc3ccccc3-c3ccccc3C(=O)O)ccc21 [Structure 52c, 2-[5,6,7,8-tetrahydro-5,5,8,8-tetramethyl-2-naphthalenyl]methoxy-[1,1'-biphenyl]-2'-carboxylic acid]",72%
4,"CC1(C)CCC(C)(C)c2cc(COc3ccccc3-c3cccc(CC(=O)O)c3)ccc21 [Structure 57, 2-[5,6,7,8-tetrahydro-5,5,8,8-tetramethyl-2-naphthalenyl]methoxy-[1,1'-biphenyl]-3'-acetic acid]",92%

# Same assay, conditions: 100 μM; PLA2 from human platelets; pH 7, 37° C.
row,SMILES,inhibition at 100 µM
1,"CC(C)=CCOc1ccc(COc2cccc(/C=C/C(=O)O)c2-c2cccc(C(=O)O)c2)cc1OCC=C(C)C [Structure 39a, 2-[3,4-his (3-methyl-2-butenyloxy)phenyl]methoxy-3'-carboxy-[1,1'-biphenyl]-6-[(E)-3-propenoic acid]]",73%
2,O=C(O)/C=C/c1cccc(OCc2ccc(OC3CCCC3)c(OC3CCCC3)c2)c1-c1cccc(C(=O)O)c1 [Structure 39b],86%
3,CCCCCOc1ccc(COc2cccc(/C=C/C(=O)O)c2-c2cccc(C(=O)O)c2)cc1OCCCCC [Structure 39c],59%
4,"CC1(C)CCC(C)(C)c2cc(COc3cccc(/C=C/C(=O)O)c3-c3cccc(C(=O)O)c3)ccc21 [Structure 39d, 3'-carboxy-2-[5,6,7,8-tetrahydo-5,5,8,8-tetramethyl-2-naphthalenyl]methoxy-[1,1'-biphenyl]-6-[(E)-3-propenoic acid]]",72%
5,"CC1(C)CCC(C)(C)c2cc(COc3ccc(C(=O)O)cc3-c3ccccc3)ccc21 [Structure 44, 2-[5,6,7,8-tetrahydro-5,5,8,8-tetramethyl-2-naphthalenyl]methoxy-[1,1'-biphenyl]-5-carboxylic acid]",70%
6,"CC1(C)CCC(C)(C)c2cc(COc3c(C(=O)O)cccc3-c3ccccc3)ccc21 [Structure 48, 2-[5,6,7,8-tetrahydro-5,5,8,8-tetramethyl-2-naphthalenyl]methoxy-[1,1'-biphenyl]-3-carboxylic acid]",88%
